Laboratory results as given in patent US9931320B2, “Parasiticidal oral veterinary compositions comprising systemically-acting active agents, methods and uses thereof” (MERIAL INC., priority 2012, dated 2018).

What was measured:
Type in all cases: in vivo
[1] = test system: ticks (Dermacentor variabilis); experiment: Efficacy of soft chews against induced tick infestations on dogs (Example 2); conditions: for % Reduction Ticks: soft chew of Table 6, once on Day 0, dogs; for Percent reduction against ticks: Table 6 soft chew, treated once on Day 0, dogs
Protocol: (§1) Sixteen beagles were studied to determine the effectiveness of a soft chewable veterinary composition comprising Compound A against induced infestations of Dermacentor variabilis and Ctenocephalides felis.
(§2) Four Treatment Groups containing four dogs each were formed. Dogs in Group 1 were untreated. […] All dogs were treated once on Day 0.
(§3) All dogs were infested with approximately 100 C. felis on Days −1, 8, 15, 22, 29, 35, 43, 57 and 71. All dogs were also infested with approximately 50 D. variabilis on Days −1, 7, 14, 21, 28, 34 and 42. Both ticks and fleas were counted upon removal on Days 2, 9, 16, 23, 30, 36 and 44. Fleas were counted upon removal for all Treatment Groups on Days 58 and 72.

[2] = Plasma concentration of Compound A in dogs after oral administration (FIG. 5); conditions: soft chews at 20 mg/kg and 40 mg/kg compared with polyethylene glycol/alcohol solution at 25 mg/kg
From the text: Although the extremely high bioavailability of the chewable compositions is in part due to the physicochemical properties of the isoxazoline active agents, the high levels observed from the chewable compositions of the invention are made possible by the presence and combination of the non-active excipients, which ensure complete and predictable dissolution of the composition and maintain the active agents in solution in the digestive tract of the animal. […] This plot compares the plasma concentration of an isoxazoline active agent (Compound A) delivered from soft chewable compositions of the invention designed to deliver 20 mg/kg and 40 mg/kg of body weight with administration of a polyethylene glycol/alcohol solution of the active agent at 25 mg/kg body weight. […] This is particularly surprising since the chewable compositions are in the form of a solid that must disintegrate and completely release and solubilize the active agent for efficient absorption during digestion. One would expect the solution to provide higher bioavailability because the active agent is completely dissolved when administered.

[3] = test system: Dermacentor variabilis; experiment: Long lasting efficacy against D. variabilis on dogs (Example 6, Table 53)
Protocol: Forty two beagles were allotted to seven groups of six dogs each. Groups 1 and 2 served as untreated controls. Groups 3, 4 and 5 were each treated on Day 0 with three different compositions of the invention described in Tables 30, 31 and 32, respectively, containing Compound A in an amount to deliver a dose of about 20 mg/kg of body weight. Similarly, on Day 0, Groups 6 and 7 were each treated with the compositions described in Tables 30 and 32, respectively, containing Compound A to deliver a dose of about 20 mg/kg of body weight.
Dogs in Groups 1, 3, 4 and 5 were infested with approximately 50 A. americanum and dogs in Groups 2, 6 and 7 were infested with approximately 50 D. variabilis on Days −1, 42, 56, 70, 77, 84, 91 and 98. Dogs in Groups 1, 2, 3, 6 and 7 were also infested on Day 105. Ticks were counted upon removal at approximately 48 hours post treatment on Day 2 and 48 hours post infestation on Days 44, 58, 72, 79, 86, 93, 100 and 107. Tables 52 and 53 below show the exceptional long-lasting efficacy of the inventive compositions against A. americanum and D. variabilis.

[4] = test system: fleas (Ctenocephalides felis); experiment: Efficacy and speed of kill against fleas on dogs (Example 3)
Protocol: Three Treatment Groups were formed. Dogs in Group 1 were untreated. […] Groups 1 and 2 contained 12 dogs each and Group 3 contained 4 dogs. All dogs were treated once on Day 0.
All dogs were infested with approximately 75 C. felis on Days 0 and 7. The dogs in Group 3 and dogs in pre-allocated subgroups in Groups 1 and 2 were also infested with approximately 75 C. felis on Days 14, 21 and 28. Fleas were counted upon removal from selected subjects at 30 minutes, 4 hours, and 12 hours after treatment or infestation on Days 0 and 7. On Days 14, 21 and 28, fleas were counted upon removal from selected subjects at 8 and 12 hours after infestation. […] Following infestation at later timepoints, the composition started working within 30 minutes, and by 12 hours after infestation on Days 7, 14 and 21, efficacy of >98% was achieved.

[5] = test system: fleas (Ctenocephalides felis); experiment: Efficacy of soft chews against induced flea infestations on dogs (Example 2); conditions: for % Reduction Fleas: soft chew of Table 6, once on Day 0, dogs; for Percent reduction (efficacy) against fleas: Table 6 soft chew, treated once on Day 0, dogs
Protocol: as §1, §2, §3

[6] = Group 2, approximately 1.5 mg/kg, Day 2
[7] = Group 2, approximately 1.5 mg/kg, Day 9
[8] = Group 2, approximately 1.5 mg/kg, Day 16
[9] = Group 2, approximately 1.5 mg/kg, Day 23
[10] = Group 2, approximately 1.5 mg/kg, Day 30
[11] = Group 2, approximately 1.5 mg/kg, Day 36
[12] = Group 2, approximately 1.5 mg/kg, Day 44
[13] = Group 3, approximately 2.5 mg/kg, Day 2
[14] = Group 3, approximately 2.5 mg/kg, Day 9
[15] = Group 3, approximately 2.5 mg/kg, Day 16
[16] = Group 3, approximately 2.5 mg/kg, Day 23
[17] = Group 3, approximately 2.5 mg/kg, Day 30
[18] = Group 3, approximately 2.5 mg/kg, Day 36
[19] = Group 3, approximately 2.5 mg/kg, Day 44
[20] = Group 4, approximately 3.5 mg/kg, Day 2
[21] = Group 4, approximately 3.5 mg/kg, Day 9
[22] = Group 4, approximately 3.5 mg/kg, Day 16
[23] = Group 4, approximately 3.5 mg/kg, Day 23
[24] = Group 4, approximately 3.5 mg/kg, Day 30
[25] = Group 4, approximately 3.5 mg/kg, Day 36
[26] = Group 4, approximately 3.5 mg/kg, Day 44
[27] = through and including Day 30, all treatment groups (approx. 1.5, 2.5 or 3.5 mg/kg)

For `O=C(CNC(=O)c1ccc(C2=NOC(c3cc(Cl)cc(C(F)(F)F)c3)(C(F)(F)F)C2)c2ccccc12)NCC(F)(F)F` (stereo not shown) [Compound A, 4-[5-[3-chloro-5-(trifluoromethyl)phenyl]-4,5-dihydro-5-(trifluoromethyl)-3-isoxazolyl]-N-[2-oxo-2-[(2,2,2-trifluoroethyl)amino]ethyl]-1-naphthalenecarboxamide], the “% Reduction Ticks” value [1, 6] was 100.0%, the “% Reduction Ticks” value [1, 7] was 99.2% and the “% Reduction Ticks” value [1, 8] was 100.0%. The “% Reduction Ticks” value [1, 9] was 92.1%, the “% Reduction Ticks” value [1, 10] was 99.5% and the “% Reduction Ticks” value [1, 11] was 82.4%. For the same molecule, the “% Reduction Ticks” value [1, 12] was 68.3%, the “% Reduction Ticks” value [1, 13] was 100.0% and the “% Reduction Ticks” value [1, 14] was 100.0%. The “% Reduction Ticks” value [1, 15] was 99.1%, the “% Reduction Ticks” value [1, 16] was 97.2% and the “% Reduction Ticks” value [1, 17] was 94.3%. The “% Reduction Ticks” value [1, 18] was 96.9%, the “% Reduction Ticks” value [1, 19] was 88.1% and the “% Reduction Ticks” value [1, 20] was 100.0%. The “% Reduction Ticks” value [1, 21] was 100.0%, the “% Reduction Ticks” value [1, 22] was 99.5% and the “% Reduction Ticks” value [1, 23] was 100.0%. The “% Reduction Ticks” value [1, 24] was 98.1%, the “% Reduction Ticks” value [1, 25] was 91.9% and the “% Reduction Ticks” value [1, 26] was 84.7%. For the same molecule, the “Percent reduction against ticks” value ([1]; through Day 36, Groups 3 and 4) was > 90%, the “Percent reduction against ticks” value [1, 27] was > 90% and the “Plasma concentration of Compound A” value [2] was “significantly higher plasma levels”. The “% Reduction Ticks” value ([3]; Group 6, composition of Table 30, about 20 mg/kg once on Day 0, dogs, Day 2) was 100.0%, the “% Reduction Ticks” value ([3]; Group 6, composition of Table 30, about 20 mg/kg once on Day 0, dogs, Day 44) was 100.0% and the “% Reduction Ticks” value ([3]; Group 6, composition of Table 30, about 20 mg/kg once on Day 0, dogs, Day 58) was 99.5%. For the same molecule, the “% Reduction Ticks” value ([3]; Group 6, composition of Table 30, about 20 mg/kg once on Day 0, dogs, Day 72) was 100.0%, the “% Reduction Ticks” value ([3]; Group 6, composition of Table 30, about 20 mg/kg once on Day 0, dogs, Day 79) was 98.8% and the “% Reduction Ticks” value ([3]; Group 6, composition of Table 30, about 20 mg/kg once on Day 0, dogs, Day 86) was 100.0%. For the same molecule, the “% Reduction Ticks” value ([3]; Group 6, composition of Table 30, about 20 mg/kg once on Day 0, dogs, Day 93) was 98.9%, the “% Reduction Ticks” value ([3]; Group 6, composition of Table 30, about 20 mg/kg once on Day 0, dogs, Day 100) was 99.4% and the “% Reduction Ticks” value ([3]; Group 6, composition of Table 30, about 20 mg/kg once on Day 0, dogs, Day 107) was 99.4%. For the same molecule, the “% Reduction Ticks” value ([3]; Group 7, composition of Table 32, about 20 mg/kg once on Day 0, dogs, Day 2) was 100.0%, the “% Reduction Ticks” value ([3]; Group 7, composition of Table 32, about 20 mg/kg once on Day 0, dogs, Day 44) was 100.0% and the “% Reduction Ticks” value ([3]; Group 7, composition of Table 32, about 20 mg/kg once on Day 0, dogs, Day 58) was 100.0%. For the same molecule, the “% Reduction Ticks” value ([3]; Group 7, composition of Table 32, about 20 mg/kg once on Day 0, dogs, Day 72) was 100.0%, the “% Reduction Ticks” value ([3]; Group 7, composition of Table 32, about 20 mg/kg once on Day 0, dogs, Day 79) was 100.0% and the “% Reduction Ticks” value ([3]; Group 7, composition of Table 32, about 20 mg/kg once on Day 0, dogs, Day 86) was 100.0%. The “% Reduction Ticks” value ([3]; Group 7, composition of Table 32, about 20 mg/kg once on Day 0, dogs, Day 93) was 97.9%, the “% Reduction Ticks” value ([3]; Group 7, composition of Table 32, about 20 mg/kg once on Day 0, dogs, Day 100) was 100.0% and the “% Reduction Ticks” value ([3]; Group 7, composition of Table 32, about 20 mg/kg once on Day 0, dogs, Day 107) was 100.0%. For the same molecule, the Flea efficacy ([4]; 12 hours after administration on Day 0, soft chews of Tables 7 and 8, approx. 2.5 mg/kg) was 100%, the “Time until compositions started working against fleas” value ([4]; after treatment on Day 0, approx. 2.5 mg/kg) was ≤ 30 min and the Flea efficacy ([4]; by 12 hours after infestation on Days 7, 14 and 21, soft chews of Tables 7 and 8, approx. 2.5 mg/kg once on Day 0) was > 98%. The “Time until composition started working against fleas” value ([4]; following infestation at later timepoints, approx. 2.5 mg/kg once on Day 0) was ≤ 30 min, the “% Reduction Fleas” value [5, 6] was 100.0% and the “% Reduction Fleas” value [5, 7] was 100.0%. For the same molecule, the “% Reduction Fleas” value [5, 8] was 100.0%, the “% Reduction Fleas” value [5, 9] was 100.0% and the “% Reduction Fleas” value [5, 10] was 100.0%. The “% Reduction Fleas” value [5, 11] was 99.2%, the “% Reduction Fleas” value [5, 12] was 97.8% and the “% Reduction Fleas” value ([5]; Group 2, approximately 1.5 mg/kg, Day 58) was 89.4%. The “% Reduction Fleas” value ([5]; Group 2, approximately 1.5 mg/kg, Day 72) was 79.6%, the “% Reduction Fleas” value [5, 13] was 100.0% and the “% Reduction Fleas” value [5, 14] was 100.0%. For the same molecule, the “% Reduction Fleas” value [5, 15] was 100.0%, the “% Reduction Fleas” value [5, 16] was 100.0% and the “% Reduction Fleas” value [5, 17] was 100.0%. For the same molecule, the “% Reduction Fleas” value [5, 18] was 100.0%, the “% Reduction Fleas” value [5, 19] was 99.3% and the “% Reduction Fleas” value ([5]; Group 3, approximately 2.5 mg/kg, Day 58) was 96.7%. The “% Reduction Fleas” value ([5]; Group 3, approximately 2.5 mg/kg, Day 72) was 94.4%, the “% Reduction Fleas” value [5, 20] was 100.0% and the “% Reduction Fleas” value [5, 21] was 100.0%. The “% Reduction Fleas” value [5, 22] was 100.0%, the “% Reduction Fleas” value [5, 23] was 100.0% and the “% Reduction Fleas” value [5, 24] was 100.0%. For the same molecule, the “% Reduction Fleas” value [5, 25] was 99.6%, the “% Reduction Fleas” value [5, 26] was 98.3% and the “% Reduction Fleas” value ([5]; Group 4, approximately 3.5 mg/kg, Day 58) was 95.2%. The “% Reduction Fleas” value ([5]; Group 4, approximately 3.5 mg/kg, Day 72) was 80.6%, the “Percent reduction (efficacy) against fleas” value (from here on “Percent reduction (efficacy)”) ([5]; through Day 44, all groups (approx. 1.5, 2.5 or 3.5 mg/kg)) was “above 95%” and the “Percent reduction (efficacy)” value ([5]; through Day 58, Groups 3 and 4) was “above 95%”. For the same molecule, the “Percent reduction (efficacy)” value [5, 27] was 100%.
